Laboratory results published in US6458585B1, “Cytokine-free culture of dendritic cells” (Nexell Therapeutics Inc., priority 1996, dated 2002).

What was measured:
Format in all cases: cell-based, human
Bulk PBMNC [1] = experiment: Morphologically identified dendritic cells in bulk PBMNC cultures with non-cytokine additives; details: for % DC: Day 7; for TOTAL # OF DC: Day 7, projected in culture
Description: (§1) Cytofunnels were attached to microscope slides. 50,000 to 100,000 cells were removed from each culture and resuspended in approximately 100 to 200 ul of PBS-CMF. Slides were placed in the Cytospin® centrifuge and spun at 100 rpm for 4 min. Cytofunnels were removed from the slides and the slides were air dried for 1 minute. Ten drops of Wright-Geimsa stain were placed onto each slide and allowed to fix for 1 to 2 minutes. Ten drops of water were added to each slide and allowed to sit for 2 to 4 minutes. The slides were rinsed and air dried.
(§2) Reading of Cytospin Slides: Slides were read under phase contrast microscopy, 40× and 60× oil magnification. One hundred cells were identified and characterized morphologically as either dendritic cells or non-dendritic cells (lymphocytes and monocyte, or CD34+-derived cells in those cases). Digital images were taken using a color monitor and color video printer.
(§3) Culture of Bulk PBMNC: PBMNC cells were cultured in X-VIVO 15™ supplemented with 2 mM L- glutamine. Cultures were initiated at 5×^05 cells/ml in PL2417 gas-permeable containers (20 ml). GM-CSF and IL-4 were added to the cultures at final concentrations of 50 ng/ml and 1000 U/ml or non-cytokine additives such as Vitamin D3 at 2.5 uM, Vitamin E at 0.1%, Linoleic Acid at 5 ug/ml, or Ca++ Ionophore at 10 mM. Addition and subtraction of cells, media, and growth factors to and from PL2417 gas-permeable containers was accomplished by spiking a Sampling Site Coupler into the sample port of the container followed by use of syringes and needles. Cells were cultured in a 5% CO2, ambient O2, 37° C. humidified incubator for 7 days.
(§4) Cytospin slide preparation, Wright-Geimsa and immunohistochemical staining of the cultured cells were conducted as described in Example 1 and 2 above. Mixed lymphocyte reactions (MLR's) were setup using T cells (responders) and dendritic cell enriched cultures (stimulators) from bulk PBMNC cultures, as described above in Example 1.

Bulk PBMNC [2] = experiment: Flow cytometry phenotype of bulk PBMNC cultures with non-cytokine additives; details: Day 7
Description: as §3
Cultured cells were phenotyped as described in Example 1 above for the following markers: […]

T cells = experiment: Allogeneic MLR with bulk PBMNC cultures grown with non-cytokine additives
Description: MLR's were setup using T cells as responders and dendritic cell enriched cultures as antigen presenters. Sheep red blood cells were prepared and used to erythrocyte rosette T cells from a MNC preparation as described in “Current Protocols in Immunology”, John Wiley & Sons Inc, 1995. Vol. 2, 7.2.1-7.2.4. Erythrocyte+(E+ ) T cells were resuspended to 1×10^6 cells/ml in RPMI 1640/10% FCS. Dendritic cells were resuspended to 1×10^6 cells/ml in RPMI 1640/10% FCS and mitomycin C was added at 25 ug/ml to inhibit proliferation. The tubes were incubated at 37° C. for 30 min. then washed 3 times with PBS-CMF/1% HA. […] […] The appropriate control wells were also prepared. Plates were incubated for 4 or 5 days at 37° C.
Each well was pulsed with 1 uCi of ^3H-thymidine in RPMI 1640/10% FCS. Plates were incubated overnight at 37° C.
Plates were harvested onto glass fiber filter strips using a cell harvester. Discs were placed into scintillation vials containing scintillation cocktail and samples were counted using a beta radiation counter.
as §4
The functional capacity of cultured cells to induce T cell proliferation was measured in an allogeneic MLR. […] At the greatest ratio of 1:100, the differences in capacity to induce T cell proliferation is marginal between the GM-CSF/IL-4 cultured cells and the non-cytofine additive cultured cells.

Bulk PBMNC [3] = experiment: Concentration, viability and total cells of bulk PBMNC cultured with non-cytokine additives in PL2417; details: Day 7, PL2417 container, X-VIVO 15
Description: as §3
The next set of experiments evaluated only 4 of the non-cytokine additives. These 4 were determined to have the highest ability to induce DC generation from PBMNC. The 4 non-cytokine additives examined were Vitamin D3, Vitamin E, Ca^++ Ionophore, and Linoleic Acid. These additives were compared to GM-CSF/IL-4. Bulk PBMNC were initiated at 5×10^5 cells/ml in X-VIVO 15™ using PL2417 gas-permeable containers (20 ml per container).

Bulk PBMNC [4] = experiment: S100+ cells in bulk PBMNC cultures with non-cytokine additives; details: for % S100+: Day 7; for TOTAL # OF S100+: Day 7, projected in culture; for percent of S100+ cells: day 7, average
Description: (§5) Immunocytochemical staining: PBS (phosphate buffered saline) was made by dissolving 5 PBS tablets into 1000 ml millipore water. Cytospin slides were soaked in PBS. Endogenous peroxidase activity was blocked by treating slides with hydrogen peroxide/PBS (2 ml 30% H2O2+30 ml PBS) for 10 min. Slides were rinsed with PBS one time. Non-specific binding sites were blocked by incubating with normal serum matching source of secondary antibody (i.e. if secondary antibody is biotinylated goat-anti-mouse, used normal goat serum) at room temp. for 15 min. in a humidified environment. Excess serum was shaken from slides and placed 100 ul of primary antibody on slide, making sure cells are covered with liquid and incubated in humidified environment, room temp, for one hour. Negative control slides were incubated with normal serum for this hour. Slides were rinsed 3 times with PBS. Slides were incubated with biotinylated antibody reactive against the primary antibody (i.e. if primary antibody is mouse-anti-human, use a biotinylated goat-anti-mouse antibody) for 1 hour in humidity. Slides were rinsed 3 times with PBS. Slides were incubated with streptavidin-peroxidase, 2 drops/slide, for 30 min. in humidity. Slides were rinsed 3 times with PBS.
(§6) Chromagen solution was made with 5 ml millipore water+2 drops of chromagen buffer+1 drop of concentrated chromagen+1 drop of substrate, and 4-5 drops were added to each slide. […] Slides were counterstained with hematoxylin for about 5 min, or until cell nuclei were stained purple. Cells were rinsed with tap water and allowed to air dry. Slides were covered with crystal mount and oven dried at 80 degrees for 15 min. Slides were allowed to cool, then coversliped with mounting medium.
as §3, §4
The S100 protein is a nerve cell protein that has been associated with dendritic cells. In Table 47, at day 7 of culture, the highest percent of S100+ cells was present in the GM-CSF/IL-4 culture (13%).

adherent PBMNC [5] = experiment: S100 immunohistochemistry of plastic adherent cells cultured with non-cytokine additives; details: for percentage of S100+ cells: without GM-CSF added to additives
Description: as §5, with “Endogenous peroxidase activity was blocked by treating slides with hydrogen peroxide/PBS (2 ml 30% H2O2+30 ml PBS) for 10 min.” left out
as §6
(§7) Enrichment and Culture of Adherent Cells Using Polystyrene Tissue Culture Plates: PBMNC were resuspended in culture media (X-VIVO 15™+10% autologous serum) at 2×10^6 cells/ml. Cells were placed into 48 well polystyrene tissue culture plates […] and incubated for 2 hours in a 5% CO2, ambient O2, 37° C. humidified incubator. Non-adherent cells were removed from the plates then wells were rinsed with X-VIVO 15™ containing no serum. Cells remaining in the wells were adherent cells. These cells were cultured by adding 2 ml of X-VIVO 15™ to each well plus GM-CSF and IL-4 at final concentrations of 50 ng/ml and 1000 U/ml or the following: cAMP at 0.5 mM, dibutyryl cAMP at 0.1 mM, NaF at 0.25 mM, theophylline at 0.5 mM, PGE at 0.1 mM, Vitamin D3 at 2.5 uM, Vitamin E at 0.1%, Retinoic Acid at 10^−6 M, PMA at 1 pM, Linoleic Acid at 5 ug/ml, or Ca^++ Ionophore at 10 mM. Furthermore, cells were also cultured with the above non-cytokine additives plus GM-CSF at 50 ng/ml. Cells were cultured in a 5% CO2, ambient O2, 37° C. humidified incubator for 7 days.
as §4
(§8) Results: In the set of experiments using plastic adherent cells grown in polystyrene tissue culture plates, a Day 0 analysis of the cells was not performed. However, these cultures were analyzed for the presence of DC on days 4 and 7. Analysis perfomed were cell counts, viability via propidium iodide, morphology under Wright-Geimsa staining, and immunohistochemical staining using an anti-S100 antibody.

adherent PBMNC [6] = experiment: DC morphology (Wright-Geimsa) of plastic adherent cells cultured with non-cytokine additives
Description: as §1, §2, §7, §4, §8

adherent PBMNC [7] = experiment: Cell counts and viability of plastic adherent cells cultured with non-cytokine additives in polystyrene plates; design: % VIABLE: concentration or dose not given beside the values; details: for % VIABLE: propidium iodide
Description: Viability Determination: Prior to acquisition, 5 ul propidium iodide (PI) was added to each tube for use as a viability check. The cells were vortexed and acquired within 10 min of PI addition.
as §7, §8

[8] = Day 7, Cell Culture:T cell Ratio 1:1
[9] = Day 7, Cell Culture:T cell Ratio 1:10
[10] = Day 7, Cell Culture:T cell Ratio 1:100

SMILES | % DC (Bulk PBMNC [1]) [%] | TOTAL # OF DC (Bulk PBMNC [1]) | Percent of Phenotype in Culture: CD1a-PE (Bulk PBMNC [2]) [%] | Percent of Phenotype in Culture: CD14-PE (Bulk PBMNC [2]) [%] | Percent of Phenotype in Culture: CD80-PE (Bulk PBMNC [2]) [%] | Percent of Phenotype in Culture: CD86-PE (Bulk PBMNC [2]) [%] | Allogeneic MLR. Increase Over Background Proliferation (T cells; [8]) | Allogeneic MLR. Increase Over Background Proliferation (T cells; [9]) | Allogeneic MLR. Increase Over Background Proliferation (T cells; [10]) | CELLS/ML (Bulk PBMNC [3]) [E + 06 cells/ml] | TOTAL CELLS (Bulk PBMNC [3]) [E + 06] | VIABILITY (Bulk PBMNC [3]) [%] | % S100+ (Bulk PBMNC [4]) [%] | TOTAL # OF S100+ (Bulk PBMNC [4]) [E + 05] | percent of S100+ cells (Bulk PBMNC [4]) | further results
Cc1c(C)c2c(c(C)c1O)CCC(C)(CCCC(C)CCCC(C)CCCC(C)C)O2 (mixture of isomers) [VIT E] | 4.00 | 2.82E+05 | 0.08 | 0.73 | 1.97 | 2.75 | 6.3 | 2.6 | 1.7 | 1.87 | 7.52 | 82.41 | 8.00 | 6.01 | – | –
Cc1c(C)c2c(c(C)c1O)CCC(C)(CCCC(C)CCCC(C)CCCC(C)C)O2 (mixture of isomers) [Vitamin E] | – | – | – | – | – | – | – | – | – | – | – | – | – | – | equivalent average percentages | average total number of morphologically identified DC projected in culture (Bulk PBMNC [1]; day 7): lowest total number; percentage of S100+ cells (adherent PBMNC [5]; day 4): 19%
CNc1ccc2oc(CC3OC4(CCC3C)OC(C(C)C(=O)c3ccc[nH]3)C(C)CC4C)nc2c1C(=O)O (stereo not drawn) [Ca ++ Iono] | – | – | – | – | – | – | – | – | – | 2.22 | 8.29 | 83.72 | 7.50 | 6.17 | – | % DC (adherent PBMNC [6]; Day 4, without GM-CSF): 2.50%; % DC (adherent PBMNC [6]; Day 7, with GM-CSF present): 4.50%; % S100+ (adherent PBMNC [5]; Day 4, without GM-CSF): 17.00%; % S100+ (adherent PBMNC [5]; Day 7, with GM-CSF present): 26.50%; TOTAL CELLS (adherent PBMNC [7]; Day 4, without GM-CSF): 1.69E + 05; % VIABLE (adherent PBMNC [7]; Day 4, without GM-CSF): 74.04%; TOTAL CELLS (adherent PBMNC [7]; Day 7, with GM-CSF present): 1.05E + 05; % VIABLE (adherent PBMNC [7]; Day 7, with GM-CSF present): 82.69%
CNc1ccc2oc(CC3OC4(CCC3C)OC(C(C)C(=O)c3ccc[nH]3)C(C)CC4C)nc2c1C(=O)O (stereo not drawn) [Ca ++ lono] | – | – | 0.04 | 0.26 | 2.21 | 2.32 | – | – | – | – | – | – | – | – | – | –
CNc1ccc2oc(CC3OC4(CCC3C)OC(C(C)C(=O)c3ccc[nH]3)C(C)CC4C)nc2c1C(=O)O (stereo not drawn) [Ca++ Iono] | 7.00 | 5.74E+05 | – | – | – | – | 4.8 | 1.8 | 0.9 | – | – | – | – | – | – | –
CNc1ccc2oc(C[C@H]3O[C@@]4(CC[C@H]3C)O[C@H]([C@H](C)C(=O)c3ccc[nH]3)[C@H](C)C[C@H]4C)nc2c1C(=O)O [Ca^++ Ionophore, A23187] | – | – | – | – | – | – | – | – | – | – | – | – | – | – | equivalent average percentages | fold fewer DC (average total number projected in culture) than GM-CSF/IL-4 cultures (Bulk PBMNC [1]; day 7): approximately 4 fold; morphologically identified DC (adherent PBMNC [6]; day 7, without GM-CSF added to additives): next highest percentages; percentage of S100+ cells (adherent PBMNC [5]; day 4): 17%; percentage of S100+ cells (adherent PBMNC [5]; day 7): next highest percentages
CCCCC/C=C\C/C=C\CCCCCCCC(=O)O [Linoleic Add] | – | – | 0.08 | 0.46 | 2.61 | 2.72 | – | – | – | – | – | – | – | – | – | –
CCCCC/C=C\C/C=C\CCCCCCCC(=O)O [Linoleio Acid] | – | – | – | – | – | – | – | – | – | – | 9.18 | 87.77 | 8.50 | 7.75 | – | –
C=C1CCC(O)CC1=CC=C1CCCC2(C)C1CCC2C(C)CCCC(C)C (stereo not drawn) [VIT D3] | 6.50 | 5.12E+05 | 0.10 | 0.53 | 2.65 | 2.62 | 6.9 | 2.7 | 1.4 | 2.11 | 8.04 | 84.51 | 5.00 | 4.16 | – | –
C=C1CC[C@H](O)C/C1=C/C=C1\CCC[C@]2(C)[C@@H]([C@H](C)CCCC(C)C)CC[C@@H]12 [Vitamin D3] | – | – | – | – | – | – | – | – | – | – | – | – | – | – | lowest average percent | fold fewer DC (average total number projected in culture) than GM-CSF/IL-4 cultures (Bulk PBMNC [1]; day 7): approximately 4 fold; percentages of S100+ cells (adherent PBMNC [5]; day 7, additive added to GM-CSF 50 ng/ml): greatest percentages of S100+ cells
